Results from PubChem BioAssay (NCI).
Several values for one entry are separate records, joined by “and”; a condition that tells them apart may be missing. Equal entries are not always repeated.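 Assay format: 96-well plates, 48-hour exposure. Abbreviation: GI50, concentration required for 50% inhibition of growth. TGI denotes the concentration required for complete inhibition of growth.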

Legend:
Assay in all cases: growth of human tumour cells (NCI), 48 h
SK-MEL-28 melanoma = system: SK-MEL-28 melanoma
A498 renal = system: A498 renal
T-47D breast = system: T-47D breast
IGROV1 ovarian = system: IGROV1 ovarian
SF-268 CNS = system: SF-268 CNS
U251 CNS = system: U251 CNS
MALME-3M melanoma = system: MALME-3M melanoma
A549 NSCLC = system: A549 NSCLC
NCI-H226 lung = system: NCI-H226 lung
MCF7 breast = system: MCF7 breast

Row | Compound | GI50 (SK-MEL-28 melanoma) | TGI (SK-MEL-28 melanoma) | GI50 (A498 renal) | TGI (A498 renal) | GI50 (T-47D breast) | TGI (T-47D breast) | GI50 (IGROV1 ovarian) | TGI (IGROV1 ovarian) | GI50 (SF-268 CNS) | TGI (SF-268 CNS) | GI50 (U251 CNS) | TGI (U251 CNS) | GI50 (MALME-3M melanoma) | TGI (MALME-3M melanoma) | GI50 (A549 NSCLC) | TGI (A549 NSCLC) | GI50 (NCI-H226 lung) | TGI (NCI-H226 lung) | GI50 (MCF7 breast) | TGI (MCF7 breast)
1 | O=C(Nc1ccc(OC(F)(F)F)cc1)c1sccc1NCc1ccnc2ccccc12 | 5.64 µM | > 100 µM | 3 µM | > 40.9 µM | 2.48 µM | > 95.9 µM | 1.68 µM | 6.37 µM | 5.26 µM | > 100 µM | 6.92 µM | > 100 µM | 1.85 µM | 14.6 µM | 4.11 µM | > 100 µM | 2.89 µM | > 90.6 µM | 4.19 µM | 36 µM
2 | CC(C)(C)OC(=O)NCC(C#N)CNC(=O)OC(C)(C)C | – | > 100 µM | – | > 100 µM | – | > 100 µM | – | > 100 µM | – | > 100 µM | – | > 100 µM | – | > 100 µM | – | > 100 µM | – | > 100 µM | – | > 100 µM
3 | COC1/C=C/OC2(C)Oc3c(C)c(O)c4c(c3C2=O)C(=O)C=C(NC(=O)/C(C)=C\C=C\C(C)C(OC=O)C(C)C(O)C(C)C(OC(C)=O)C1C)C4=O (centres undefined) | – | 15 µM | – | 41.3 µM | – | 11.6 µM | – | 34.7 µM | – | 37.1 µM | – | 38.2 µM | – | 28.7 µM | – | 39.7 µM | – | 21.5 µM | – | 7.29 µM
4 | CN1C2CC(C#N)C1C=CC2=O (centres undefined) | 17.8 µM and > 100 µM | 36.7 µM and > 100 µM | 17.5 µM and > 100 µM | 35 µM and > 100 µM | 17.5 µM and > 100 µM | 45.1 µM and > 100 µM | 42.8 µM and > 100 µM | > 100 µM | 27.2 µM and > 100 µM | > 100 µM | 12.4 µM and 72.1 µM | 61.5 µM and > 100 µM | 14.8 µM and 96.6 µM | 31.4 µM and > 100 µM | 18.1 µM and > 100 µM | 46 µM and > 100 µM | 24 µM and > 100 µM | 59.6 µM and > 100 µM | – | > 100 µM
5 | Cc1cc2c(C(C)C)c(O)c(O)c(C=Nc3cc(C(F)(F)F)ccc3Cl)c2c(O)c1-c1c(C)cc2c(C(C)C)c(O)c(O)c(C=Nc3cc(C(F)(F)F)ccc3Cl)c2c1O | – | > 100 µM | – | > 100 µM | – | > 100 µM | – | 75 µM | – | > 100 µM | – | 72.2 µM | – | 95 µM | – | > 100 µM | – | 95.4 µM | – | 71.4 µM
6 | CC1(C)O[C@H]2OC3CCC(=O)CC3(O)[C@H]2O1 (some centres undefined) | – | > 100 µM | – | > 100 µM | – | > 100 µM | – | > 100 µM | – | > 100 µM | – | > 100 µM | – | > 100 µM | – | > 100 µM | – | > 100 µM | – | > 100 µM
7 | CSc1ccc(C2=Nn3c(nnc3-c3ccc(F)c(Cl)c3)SC2)cc1 | 34.2 µM | > 100 µM | 10 µM | 30.2 µM | 71 µM | > 100 µM | 13.1 µM | 44.4 µM | 75.7 µM | > 100 µM | 3.85 µM | 13.8 µM | 2.01 µM | 10.9 µM | 12.5 µM | 29.7 µM | 18.4 µM | 75.7 µM | 7.54 µM | 25.8 µM
8 | CNC(=O)Nc1ccc(-c2nc(N3CCOCC3)nc3c2cnn3C2CCOCC2)cc1 | 0.164 µM | 2.22 µM | < 0.0218 µM | 0.148 µM | 0.0419 µM | 0.341 µM | 0.0794 µM | 0.493 µM | 0.284 µM | > 51.3 µM | 0.258 µM | > 38.6 µM | 0.0509 µM | 0.44 µM | 0.204 µM | 2.71 µM | 0.125 µM | 4.26 µM | 0.0784 µM | > 100 µM
9 | CN1CCCN(CCNc2nccc(-c3c(-c4cccc(O)c4)nc4sccn34)n2)S1(=O)=O | 0.168 µM and 0.226 µM | 60.8 µM and 40.3 µM | 5.31 µM and 3.4 µM | 17.5 µM and 12.6 µM | 14.2 µM and 11.8 µM | 57.1 µM and > 88.7 µM | 3.93 µM and 5.33 µM | 16.6 µM and 43.6 µM | 17.7 µM | > 100 µM | 8.99 µM and 11.9 µM | 50.4 µM and > 51.1 µM | 0.0583 µM | 3.91 µM | 7.46 µM and 7.71 µM | 75 µM and > 100 µM | 15.3 µM and 11.3 µM | 50 µM and 54.5 µM | 22.1 µM and 18.8 µM | 75 µM and > 100 µM
10 | CC(=O)c1cccc(N(/C=C/C(=O)C(F)(F)F)CC(=O)c2ccc(Cl)cc2)c1 | > 100 µM | > 100 µM | > 100 µM | > 100 µM | > 100 µM | > 100 µM | > 100 µM | > 100 µM | > 100 µM | > 100 µM | > 100 µM | > 100 µM | > 100 µM | > 100 µM | > 100 µM | > 100 µM | > 100 µM | > 100 µM | > 100 µM | > 100 µM
